Measured values reported in ChEMBL document CHEMBL1122223, “New developments in Ca2+ channel antagonists” (J Med Chem, 1983).
Each block holds one molecule with its values, some of them ahead of it.

How the values were obtained:
[1] = species on record: Oryctolagus cuniculus; assay: Inhibition of contraction in rabbit aorta, K+.; format: functional; details: read-out: ID50 (the source's name)
[2] = species on record: Oryctolagus cuniculus; assay: Inhibition of [Ca2+] uptake in rabbit aorta, K+.; format: functional; details: read-out: ID50 (the source's name)
[3] = species on record: Felis catus; assay: [Ca2+] antagonistic activity on [Ca2+] current in cat ventricular trabeculae; format: functional
[4] = species on record: Canis familiaris; assay: Antagonistic activity against K+ induced responses in canine trachea.; format: functional; details: Canis lupus familiaris, read-out: ID50 (the source's name)
[5] = species on record: Oryctolagus cuniculus; assay: Inhibition of [Ca2+] uptake in rabbit pulmonary artery, K+.; format: functional; details: read-out: ID50 (the source's name)
[6] = species on record: Oryctolagus cuniculus; assay: Antagonistic activity against K+ induced responses in rabbit aorta; format: functional; details: read-out: ID50 (the source's name)
[7] = species on record: Canis familiaris; assay: Antagonistic activity against ACh induced responses in canine trachea; format: functional; details: Canis lupus familiaris, read-out: ID50 (the source's name)
[8] = species on record: Oryctolagus cuniculus; assay: Inhibition of contraction in rabbit pulmonary artery, K+.; format: functional; details: read-out: ID50 (the source's name)
[9] = species on record: Oryctolagus cuniculus; assay: Antagonistic activity against norepinephrine (NE) induced responses in rabbit aorta; format: functional; details: read-out: ID50 (the source's name)
[10] = Dissociation constant for low affinity binding sites in intact cultured cardiac cells
[11] = species on record: Rattus norvegicus; assay: Effective concentration for negative inotropic effect; format: functional, organism-based
[12] = tested on: PC-12; assay: Ability to block depolarization induced 45Ca uptake into pheochromocytoma PC12 cells; format: functional, cell-based; details: Rattus norvegicus
[13] = Dissociation constant for binding to isolated membranes from clonal cell line
[14] = Dissociation constant for high affinity binding sites in intact cultured cardiac cells
[15] = species on record: Cavia porcellus; assay: [Ca2+] antagonistic activity on [Ca2+] current in guinea pig single ventricular cells; format: functional; details: read-out: ID50 (the source's name)
[16] = species on record: Cavia porcellus; assay: Antagonistic activity against K+ induced responses in guinea pig ileum.; format: functional; details: read-out: ID50 (the source's name)
[17] = species on record: Cavia porcellus; assay: Antagonistic activity against ACh in guinea pig ileum.; format: functional; details: read-out: ID50 (the source's name)
[18] = species on record: Felis catus; assay: [Ca2+] antagonistic activity on [Ca2+] current in cat papillary.; format: functional, Papillary muscle
[19] = species on record: Cavia porcellus; assay: [Ca2+] antagonistic activity on contraction in guinea pig atria.; format: functional; details: read-out: ID50 (the source's name)
[20] = species on record: Oryctolagus cuniculus; assay: Antagonistic activity against K+ induced responses in rabbit saphenous; format: functional, Saphenous vein
[21] = species on record: Oryctolagus cuniculus; assay: Antagonistic activity against 5-HT induced responses in rabbit basilar; format: functional
[22] = species on record: Oryctolagus cuniculus; assay: Antagonistic activity against K+ induced responses in rabbit basilar.; format: functional
[23] = species on record: Oryctolagus cuniculus; assay: Antagonistic activity against 5-HT in rabbit saphenous; format: functional, Saphenous vein
[24] = species on record: Rattus norvegicus; assay: Inhibition of [Ca2+] uptake in rat aorta, K+.; details: read-out: ID50
[25] = species on record: Rattus norvegicus; assay: Inhibition of contraction in rat aorta, K+.; details: read-out: ID50
[26] = species on record: Canis familiaris; assay: Antagonistic activity against K+ induced responses in canine coronary.; format: functional, Canis lupus familiaris
[27] = species on record: Canis familiaris; assay: Antagonistic activity against norepinephrine induced contraction in canine coronary; format: functional, Canis lupus familiaris

IC50 [1]: 0.5 µM | IC50 [2]: 0.3 µM
SMILES: COc1ccc([C@@H]2Sc3ccccc3N(CCN(C)C)C(=O)[C@@H]2OC(C)=O)cc1 [DILTIAZEM]

IC50 [4]: < 1000 µM | IC50 [5]: 0.3 µM | IC50 [1]: 0.17 µM | IC50 [6]: 0.03 µM | IC50 [7]: > 1000 µM | IC50 [2]: 0.0068 µM | IC50 [8]: 0.4 µM | IC50 [9]: 100 µM
SMILES: COc1ccc(CCN(C)CCCC(C#N)(c2ccc(OC)c(OC)c2)C(C)C)cc1OC (stereo not given) [VERAPAMIL]
ID50 [3]: <10 µM

EC50 [11]: 0.028 µM | IC50 [12]: 0.01 µM | IC50 [15]: 0.2 µM
SMILES: CCOC(=O)C1=C(C)NC(C)=C(C(=O)OC)C1c1cccc([N+](=O)[O-])c1 (stereo not given) [NITRENDIPINE]
Kd [10]: 0.016 µM | Kd [13]: 0.01 µM | Kd [14]: 0.00026 µM

SMILES: COC(=O)C1=C(C)NC(C)=C(C(=O)OC)C1c1ccccc1[N+](=O)[O-] [NIFEDIPINE]
ID50 [3]: 0.6 µM | IC50 [16]: 0.003 µM | IC50 [17]: 0.005 µM | ID50 [18]: 0.6 µM | IC50 [19]: 1 µM

IC50 [1]: 0.0019 µM | IC50 [2]: 0.001 µM
SMILES: COC(=O)C1=C(C)NC(C)=C(C(=O)OCCN(C)Cc2ccccc2)C1c1cccc([N+](=O)[O-])c1 (stereo not given) [NICARDIPINE]

SMILES: COCCOC(=O)C1=C(C)NC(C)=C(C(=O)OC(C)C)C1c1cccc([N+](=O)[O-])c1 (stereo not given) [NIMODIPINE]
ID50 [20]: 0.0003 µM | ID50 [21]: 0.0007 µM | ID50 [22]: 0.0002 µM | ID50 [23]: >0.0001 M

IC50 [24]: 0.18 µM | IC50 [25]: 0.22 µM
SMILES: Fc1ccc(C(c2ccc(F)cc2)N2CCN(C/C=C/c3ccccc3)CC2)cc1 [FLUNARIZINE]

IC50 [1]: 0.2 µM | IC50 [19]: < 1 µM | IC50 [2]: 0.15 µM
SMILES: COc1ccc(CCN(C)CCCC(C#N)(c2cc(OC)c(OC)c(OC)c2)C(C)C)cc1OC (stereo not given) [GALLOPAMIL]
ID50 [26]: 0.2 µM | ID50 [27]: 0.5 µM
